{"source": "paper PMC7824103", "about": "(Viruses, 2020)", "key": {"EBOV [1]": {"test_system": "EBOV", "test": "microbe, parasite or virus in culture", "format": "cell-based, Ebola virus", "details": "Zaire ebolavirus; for IC50: read-out: Huh7 IC50; for IC90: read-out: Huh7 IC90"}, "EBOV L (RdRp) activity": {"test_system": "EBOV L (RdRp) activity", "test": "cells", "format": "cell-based, Ebola virus", "details": "for IC50: Zaire ebolavirus, HEK293T/17, 24 h, read-out: IC50 (minigenome luciferase)"}, "in vitro [2]": {"test": "in vitro", "details": "human"}, "herpes simplex virus 1": {"test_system": "herpes simplex virus 1", "details": "cited from earlier work"}, "[3]": {"test_system": "Marburg virus/H. sapiens-tc/AGO/2005/Angola-1379v (MARV)", "test": "organism not typed", "format": "cell-based"}, "[4]": {"test_system": "vesicular stomatitis Indiana virus", "details": "cited from earlier work"}, "vaccinia virus": {"test_system": "vaccinia virus", "details": "cited from earlier work"}, "[5]": {"test_system": "HIV-1 particles pseudotyped with VSIV G", "format": "cell-based, human immunodeficiency virus 1"}, "poliovirus 1": {"test_system": "poliovirus 1", "details": "cited from earlier work"}, "[6]": {"details": "mouse, in vivo; cited from earlier work"}, "[7]": {"test_system": "Lassa virus strain Josiah (LASV)", "test": "microbe, parasite or virus in culture", "format": "cell-based", "details": "read-out: Max at conc (percent inhibition)"}, "reovirus type 1": {"test_system": "reovirus type 1", "details": "cited from earlier work"}, "in vitro [8]": {"test": "in vitro"}, "[9]": {"test_system": "human parainfluenza virus 3", "details": "cited from earlier work"}, "patients": {"test_system": "patients", "details": "human, in vivo; cited from earlier work"}, "EBOV [10]": {"test_system": "EBOV", "test": "microbe, parasite or virus in culture", "format": "cell-based, Ebola virus", "details": "Zaire ebolavirus"}, "[11]": {"test_system": "Ebola virus/H.sapiens-tc/GIN/2014/Makona-C05 (EBOV)", "test": "organism not typed", "format": "cell-based"}, "herpes simplex virus 2": {"test_system": "herpes simplex virus 2", "details": "cited from earlier work"}, "coxsackie virus B4": {"test_system": "coxsackie virus B4", "details": "cited from earlier work"}, "Sindbis virus": {"test_system": "Sindbis virus", "details": "cited from earlier work"}, "HEK 293T/T17 cells": {"test_system": "HEK 293T/T17 cells", "details": "human"}, "[12]": {"test_system": "recombinant vaccinia virus expressing GFP (rVACV-GFP)", "test": "organism not typed", "format": "cell-based"}, "African green monkeys": {"test_system": "African green monkeys", "details": "monkey, in vivo; cited from earlier work"}, "[13]": {"test_system": "recombinant cowpox virus expressing GFP (rCPXV-GFP)", "test": "microbe, parasite or virus in culture", "format": "cell-based", "details": "read-out: Max at conc (percent inhibition)"}, "[14]": {"details": "read-out: Max at conc (percent inhibition)"}, "[15]": {"details": "Orthopoxvirus vaccinia, read-out: Max at conc (percent inhibition)"}}, "note": "Where two headings read alike, the source gives them in different places.", "data": [{"compound": "CCC(CC)COC(=O)[C@H](C)N[P@](=O)(OC[C@H]1O[C@@](C#N)(c2ccc3c(N)ncnn23)[C@H](O)[C@@H]1O)Oc1ccccc1", "note": "[Remdesivir, remdesivir, reference compound]", "values": [{"measurement": "IC50", "setting": "EBOV [1]; Huh-7, 1 h", "value": 87.7, "unit": "nM"}, {"measurement": "IC90", "setting": "EBOV [1]; Huh-7, 1 h", "value": 180, "unit": "nM"}, {"measurement": "IC50", "setting": "EBOV [1]; Huh-7, 2 h", "value": 74.6, "unit": "nM"}, {"measurement": "IC90", "setting": "EBOV [1]; Huh-7, 2 h", "value": 154, "unit": "nM"}, {"measurement": "IC50", "setting": "EBOV [1]; Huh-7, 4 h", "value": 105, "unit": "nM"}, {"measurement": "IC90", "setting": "EBOV [1]; Huh-7, 4 h", "value": 188, "unit": "nM"}, {"measurement": "IC50", "setting": "EBOV [1]; Huh-7, 8 h", "value": 116, "unit": "nM"}, {"measurement": "IC90", "setting": "EBOV [1]; Huh-7, 8 h", "value": 224, "unit": "nM"}, {"measurement": "IC50", "setting": "EBOV [1]; Huh-7, 24 h", "value": 117, "unit": "nM"}, {"measurement": "IC90", "setting": "EBOV [1]; Huh-7, 24 h", "value": 231, "unit": "nM"}, {"measurement": "IC50 of constant ratio S:R, relative to remdesivir concentration", "setting": "EBOV L (RdRp) activity", "value": "1,444 nM"}, {"measurement": "IC50", "setting": "EBOV L (RdRp) activity", "value": 1440, "unit": "nM"}]}, {"compound": "CN(Cc1cnc2nc(N)nc(N)c2n1)c1ccc(C(=O)N[C@@H](CCC(=O)O)C(=O)O)cc1", "note": "[NSC 740]", "values": [{"measurement": "CC50", "setting": "in vitro [2]", "value": 130, "unit": "nM"}]}, {"compound": "COc1cc(NS(C)(=O)=O)ccc1Nc1c2ccccc2nc2ccccc12", "note": "[NSC 249992]", "values": [{"measurement": "CC50", "setting": "in vitro [2]", "value": 22000, "unit": "nM"}]}, {"compound": "CCc1nc(N)nc(N)c1-c1ccc(Cl)cc1", "note": "[NSC 3061]", "values": [{"measurement": "CC50", "setting": "in vitro [2]", "value": 22000, "unit": "nM"}]}, {"compound": "C#CCC(Cc1cnc2nc(N)nc(N)c2n1)c1ccc(C(=O)N[C@@H](CCC(=O)O)C(=O)O)cc1", "note": "(stereo partly drawn) [NSC 754230]", "values": [{"measurement": "CC50", "setting": "in vitro [2]", "value": 4, "unit": "nM"}]}, {"compound": "COc1cc(Cc2cnc(N)nc2N)cc(OC)c1OC", "note": "[NSC 106568]", "values": [{"measurement": "CC50", "setting": "in vitro [2]", "value": "> 60000", "unit": "nM"}]}, {"compound": "NSC 133071", "values": [{"measurement": "CC50", "setting": "HEK 293T cells", "value": "> 60000", "unit": "nM"}]}, {"compound": "NC(=O)c1cn([C@@H]2O[C@H](CO)[C@@H](O)[C@H]2O)c2ncnc(N)c12", "note": "[Sangivamycin, 4-amino-7-(β-D-ribofuranosyl)pyrrolo[2,3-d]pyrimidine-5-carboxamide]", "values": [{"measurement": "IC50", "setting": "herpes simplex virus 1", "value": 226, "unit": "nM"}, {"measurement": "IC50", "setting": "[3]; read-out: IC50 values (range across cell types)", "value": "100 to 300", "unit": "nM"}, {"measurement": "inhibition at 0.6 µM", "setting": "[3]; [14]", "value": 100, "unit": "%"}, {"measurement": "IC50", "setting": "[4]", "value": 65, "unit": "nM"}, {"measurement": "IC50", "setting": "EBOV [1]; Huh-7, 1 h", "value": 103, "unit": "nM"}, {"measurement": "IC90", "setting": "EBOV [1]; Huh-7, 1 h", "value": 148, "unit": "nM"}, {"measurement": "IC50", "setting": "EBOV [1]; Huh-7, 2 h", "value": 106, "unit": "nM"}, {"measurement": "IC90", "setting": "EBOV [1]; Huh-7, 2 h", "value": 143, "unit": "nM"}, {"measurement": "IC50", "setting": "EBOV [1]; Huh-7, 4 h", "value": 57, "unit": "nM"}, {"measurement": "IC90", "setting": "EBOV [1]; Huh-7, 4 h", "value": 132, "unit": "nM"}, {"measurement": "IC50", "setting": "EBOV [1]; Huh-7, 8 h", "value": 72.1, "unit": "nM"}, {"measurement": "IC90", "setting": "EBOV [1]; Huh-7, 8 h", "value": 163, "unit": "nM"}, {"measurement": "IC50", "setting": "EBOV [1]; Huh-7, 24 h", "value": 64.1, "unit": "nM"}, {"measurement": "IC90", "setting": "EBOV [1]; Huh-7, 24 h", "value": 236, "unit": "nM"}, {"measurement": "IC50", "setting": "vaccinia virus", "value": 65, "unit": "nM"}, {"measurement": "HIV-1 pseudotype transduction", "setting": "[5]", "value": "did not affect"}, {"measurement": "IC50", "setting": "poliovirus 1", "value": 226, "unit": "nM"}, {"measurement": "tissue retention", "setting": "[6]", "value": "retained in tissues for days"}, {"measurement": "inhibition at 0.3 µM", "setting": "[7]", "value": 104, "unit": "%"}, {"measurement": "inhibition at 0.6 µM", "setting": "[7]", "value": 99.7, "unit": "%"}, {"measurement": "IC50 of constant ratio S:R, relative to sangivamycin concentration", "setting": "EBOV L (RdRp) activity", "value": 46.4, "unit": "nM"}, {"measurement": "reduction of luciferase activity vs untreated control", "setting": "EBOV L (RdRp) activity", "value": "greater than 80%"}, {"measurement": "IC50", "setting": "EBOV L (RdRp) activity", "value": 46.4, "unit": "nM"}, {"measurement": "IC50", "setting": "reovirus type 1", "value": 323, "unit": "nM"}, {"measurement": "CC50", "setting": "in vitro [8]", "value": "> 600", "unit": "nM"}, {"measurement": "IC50", "setting": "[9]", "value": 65, "unit": "nM"}, {"measurement": "activity against cancer in clinical trials", "setting": "patients", "value": "inactive"}, {"measurement": "tolerability in patients", "setting": "patients", "value": "well tolerated"}, {"measurement": "IC50", "setting": "EBOV [10]", "value": "60 ± 3", "unit": "nM"}, {"measurement": "inhibition at 0.15 µM", "setting": "EBOV [10]; [14]", "value": 100, "unit": "%"}, {"measurement": "IC50", "setting": "[11]", "value": "110 ± 8", "unit": "nM"}, {"measurement": "IC50", "setting": "[11]; Zaire ebolavirus", "value": "60 ± 3", "unit": "nM"}, {"measurement": "IC50", "setting": "[11]; Zaire ebolavirus, read-out: IC50 values (range across cell types)", "value": "40 to 100", "unit": "nM"}, {"measurement": "inhibition at 0.6 µM", "setting": "[11]; Zaire ebolavirus, read-out: Max at conc (percent inhibition)", "value": 100, "unit": "%"}, {"measurement": "IC50", "setting": "herpes simplex virus 2", "value": 226, "unit": "nM"}, {"measurement": "IC50", "setting": "coxsackie virus B4", "value": 129, "unit": "nM"}, {"measurement": "IC50", "setting": "Sindbis virus", "value": 646, "unit": "nM"}, {"measurement": "cytotoxicity", "setting": "HEK 293T/T17 cells", "value": "approximately 30%"}, {"measurement": "IC50", "setting": "[12]", "value": "> 4", "unit": "nM"}, {"measurement": "IC50", "setting": "[12]; Orthopoxvirus vaccinia", "value": "20 ± 4", "unit": "nM"}, {"measurement": "inhibition at 0.075 µM", "setting": "[12]; [15]", "value": 98, "unit": "%"}, {"measurement": "inhibition at 0.3 µM", "setting": "[12]; [15]", "value": 95.4, "unit": "%"}, {"measurement": "tolerability", "setting": "African green monkeys", "value": "tolerated"}, {"measurement": "inhibition at 0.6 µM", "setting": "[13]", "value": 97, "unit": "%"}]}, {"compound": "sangivamycin HCl [NSC 143648]", "values": [{"measurement": "CC50", "setting": "HEK 293T cells", "value": "> 60000", "unit": "nM"}]}]}
